Source: paper PMC5958115, “A novel small molecule chaperone of rod opsin and its potential therapy for retinal degeneration” (Nature Communications, 2018)

How the values were obtained:
[1] = biological target: bovine isorhodopsin (rod opsin regenerated with 9-cis-retinal), photoactivated (bovine) (UniProt P02699)
[2] = biological target: bovine rod opsin in ROS disc membranes (bovine) (UniProt P02699)
mouse P23H-opsin mutant = mouse P23H-opsin mutant (Mus musculus, UniProt P15409, P23H); experiment: β-Gal fragment complementation assay: rescue of P23H opsin transport from ER to plasma membrane, U2OS(PLC-EA/P23H-PK) cells; format: cell-based; details: for β-Gal fragment complementation assay Activity score (%) Max (fit) / Efficacy: from curve fitting; for EC50: 24 h preincubation, activity standardized to 5 µM 9-cis-retinal as 100%, Hill fit, read-out: β-Gal fragment complementation assay Activity score (%) EC50
From the text: U2OS(PLC-EA/P23H-PK) cells. A U2OS stable cell line was generated by DiscoveRx, Inc. (Fremont, CA, USA) for the β-Gal fragment complementation assay used in the small-molecule HTS for rescue of P23H-opsin transport. U2OS cells that continually express P23H-PK and PLC-EA fusion proteins were generated. Briefly, this small subunit of β-Gal (PK fragment) was fused to the C-terminal of the mouse P23H-opsin mutant, while the large EA fragment, a subunit of β-Gal, was fused with PLC, a plasma membrane-anchored peptide. Both constructs were subcloned by DicoveRx, Inc. and transferred into U2OS cells by viral infections. Positive clones were selected under treatment with hygromycin and geneticin.
Briefly, U2OS(PLC-EA /P23H-PK) cells were suspended in assay medium at 3 × 10^5 cells mL^−1. The cell suspension was dispensed into 384-well plates (Greiner Bio-one, Monroe, NC, USA) at 20 µL per well, with a Multidrop dispenser (Thermo Scientific, Waltham, MA, USA). Plates with cells then were centrifuged at 200×g for 15 s before incubation at 37 °C with 5% CO2. Plates were removed 24 h later for treatment with tested compounds. A total of 248 plates containing 79,080 compounds from three small-molecule libraries were paired with an equal number of assay plates with cultured cells. Owing to a limited capacity, these plates were assayed in seven batches. An average of 56.3 nL of 10 mM compound in DMSO was dispensed into each well from column 3 to 22 of paired assay plates using a 50 nL 384-pintool system, such that the final concentration of each compound was 22.52 µM on average. […] Each assay plate was shaken for 5 s before further incubation at 37 °C with 5% CO2. After 24 h, assay plates were removed, and each well was incubated with 25 µL of 1× Gal-Screen assay buffer (1:24 substrate-buffer ratio). Assay plates were incubated in the dark for 60–90 min, and luminescence was read from each assay plate with an Envision microplate reader (PerkinElmer) during a 0.1 s per well integration time. The mean and s.d. of readouts in column 2 of each plate were calculated as Mean0% and SD0%, whereas the average and s.d. of readouts in column 23 were calculated as Mean100% and SD100%. Eq. 1: Activity scores (%) = (RLUcp − Mean0%)/(Mean100% − Mean0%) × 100%, where RLUcp is the relative luminescence unit derived for cells treated with a compound. Eq. 2: Z′-factor = 1–3 × (SD0% + SD100%)/(Mean100% − Mean0%)[32]; Eq. 3: signal-to-background (S/B) ratio = Mean100%/Mean0%. Activities of all tested compounds were registered with their compound ID by GeneData Screener (Genedata, Basel, Switzerland) and Pipeline Pilot software (Accelrys, San Diego, CA, USA). Hits, cherry-picked from a separate stock dose-dependent activity test, were selected with an activity score cutoff at 20%. Activity of each hit was tested again with the β-Gal fragment complementation assay in a 10-dose series with each dose tested in triplicate. The 10 doses tested were 80, 40, 20, 10, 5, 2.5, 1.25, 0.625, 0.313, and 0.156 µM. Dose-dependent curves of each hit compound were fitted with GeneData and Origin software.
Detailed synthetic steps are described in Supplementary Note and Supplementary Fig. 9. […] YC-002-YC-021 were purchased from commercial vendors including Enamine LLC (Monmouth Jct., NJ, USA), Matrix Scientific (Columbia, SC, USA) and Tokyo Chemical Industry Co., Ltd. (Portland, OR, USA). […] Activities of YC compounds were tested with the β-Gal fragment complementation assay, as described in a prior section. All YC compounds were tested at 10 doses, each in triplicate: 80, 40, 20, 10, 5, 2.5, 1.25, 0.625, 0.313, and 0.156 µM.

mouse P23H opsin = biological target: T1, mouse P23H opsin (Mus musculus, UniProt P15409, P23H); experiment: High-content imaging analysis of P23H opsin immunostaining in NIH3T3-(P23H opsin/GFP) cells; format: cell-based; details: ratio of P23H rod opsin fluorescence on plasma membrane to whole cell; for EC50: read-out: Immunostaining HCS MEM-Total ratio EC50
T1 construct: expressed in transfected cells
Method: To characterize the effect of active compounds on the localization of P23H-mutant opsin in mammalian cells, an image-based assay was used with cells immunostained for WT or P23H-mutant opsin protein[18]. Briefly, NIH3T3-(P23H opsin/GFP) or NIH3T3-(WT-opsin/GFP) cells were seeded at 5000 cells per well in a 384-well cell-carrier plate (PerkinElmer) and incubated at 37 °C with 5% CO2 for 2 h. Cells were treated with compounds as described for the β-Gal fragment complementation assay and incubated in assay medium for 24 h. The assay medium then was aspirated, and cells were fixed with 4% paraformaldehyde at 20 µL per well for 20 min at RT. Cells were immunostained in one of two ways: cell membranes were either permeabilized with 0.1% Triton X-100 for 15 min or left intact and then were incubated with 10% goat serum (Life Technologies). To detect opsin on the cell plasma membrane only, intact cells were immunostained with 20 µL per well of 20 µg mL^−1 B6-30 anti-rhodopsin antibody that recognizes the N-terminal epitope on the extracellular side of rhodopsin. To detect total opsin, cells were permeabilized with Triton X-100 and immunostained with 50 µg mL^−1 1D4 anti-rhodopsin antibody specific for the C-terminal epitope on the intracellular side of rhodopsin. Opsin immunostaining was visualized by incubating cells with 5 µg mL^−1 Cy3-conjugated goat anti-mouse IgG antibody. Three washes with phosphate-buffered saline (PBS: 10 mM Na2HPO4, 1.8 mM KH2PO4, pH 7.4, 137 mM NaCl, and 2.7 mM KCl) were performed between each step of incubation with antibody. In the last wash with PBS, DAPI was added to each well at 300 nM. Fluorescence images were obtained with the Operetta High Content Imaging System (PerkinElmer) using a ×20 long objective. Five fields were taken of each well for cell images using three channels for fluorescence: GFP (100 ms), Cy3 (300 ms), and DAPI (50 ms). Images were analyzed with Acapella software from the Columbus data storage and analysis system (PerkinElmer)[18]. For cells immunostained with opsin on the non-permeabilized cell membrane only, an average of total fluorescence intensity of Cy3 per cell was used to quantify opsin in each well of the 384-well plate. For cells immunostained with opsin in permeabilized whole cells, an average ratio of Cy3 intensity on the cell plasma membrane (PM) to that of the entire cell (opsin ratio PM-to-total) was calculated for each well of a 384-well plate to quantify opsin transport to the plasma membrane. The plasma membrane was defined within ± 5% of the cell border.

P23H opsin = biological target: T2, P23H opsin (Mus musculus, UniProt P15409, P23H); experiment: Immunoblot of P23H opsin glycosylation in NIH3T3 cell lysates; format: cell-based; parameters: key to Improved glycosylation: n = no; y = yes; details: P23H opsin
T2 construct: expressed in transfected cells
Method: NIH3T3-(P23H opsin/GFP) or NIH3T3-(WT-opsin/GFP) cells were seeded in a 48-well plate (Corning Costar) at 3.2 × 10^5 cells per well and incubated at 37 °C with 5% CO2 for 2 h. One hundred-µL of assay medium containing a compound at 5× its final concentration was added to each well. The plate was gently shaken for 5 s before further incubation at 37 °C with 5% CO2 for 24 h. The assay medium then was aspirated, and cells were lysed with 100 µL per well PBS containing 0.1% Triton X-100 and complete protease inhibitor cocktail (Roche, Basel, Switzerland) followed by sonication for 3 s. Protein concentrations were determined with the Bradford assay. For PNGaseF catalyzed deglycosylation, 3 µL of PNGaseF (1500 U, NEB) was added to the cell lysate and the mixture was incubated at room temperature for 1 h before immunoblotting. For NIH3T3-(P23H opsin/GFP) cells, 15 µg of total protein were loaded per well onto an SDS-polyacrylamide gel; whereas for NIH3T3-(WT-opsin/GFP) cells, 5 µg of total protein was loaded per well. Opsin protein was immunostained with 0.2 μg mL^−1 horseradish peroxidase-conjugated 1D4 anti-rhodopsin antibody. Band intensities were measured with ImageJ software (http://imagej.nih.gov/ij/; National the Institutes of Health, Bethesda, MD, USA) and normalized to a glyceraldehyde 3-phosphate dehydrogenase (GAPDH) loading control. Full scans of immunoblotted membranes are shown in Supplementary Fig. 8.

[3] = 24 h, 5 µM 9-cis-retinal = 100%

Chain of Gt (P04695 whole entry, looked up): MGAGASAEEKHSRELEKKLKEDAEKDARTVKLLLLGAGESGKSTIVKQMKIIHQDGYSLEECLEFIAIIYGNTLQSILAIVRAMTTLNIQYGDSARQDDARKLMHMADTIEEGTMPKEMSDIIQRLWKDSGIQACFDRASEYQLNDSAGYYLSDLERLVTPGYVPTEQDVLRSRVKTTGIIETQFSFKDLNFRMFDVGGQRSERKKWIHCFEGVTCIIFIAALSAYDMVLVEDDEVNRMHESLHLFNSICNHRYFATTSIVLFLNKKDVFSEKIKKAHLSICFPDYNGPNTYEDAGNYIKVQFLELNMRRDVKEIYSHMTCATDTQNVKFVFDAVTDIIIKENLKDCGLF
Chain of bovine rod opsin in ROS disc membranes (bovine) (P02699 whole entry, the tested form may be a part): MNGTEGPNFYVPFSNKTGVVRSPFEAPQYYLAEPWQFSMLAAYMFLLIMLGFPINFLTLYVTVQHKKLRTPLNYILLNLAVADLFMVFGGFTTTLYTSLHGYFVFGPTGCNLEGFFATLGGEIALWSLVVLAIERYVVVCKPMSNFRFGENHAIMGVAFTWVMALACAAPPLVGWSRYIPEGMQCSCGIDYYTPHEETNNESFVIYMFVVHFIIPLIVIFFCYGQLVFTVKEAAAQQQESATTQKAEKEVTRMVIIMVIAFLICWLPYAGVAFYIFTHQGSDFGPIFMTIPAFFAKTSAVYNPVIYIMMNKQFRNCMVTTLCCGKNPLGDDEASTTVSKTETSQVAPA
Chain of bovine isorhodopsin (rod opsin regenerated with 9-cis-retinal), photoactivated (bovine) (P02699 whole entry): as the sequence (P02699 whole entry, the tested form may be a part) above

Row | Compound | initial rate of Gt activation upon illumination (intrinsic Gtα fluorescence after addition of 300 µM GTPγS), isorhodopsin regenerated with 40 µM 9-cis-retinal alone [1] | initial rate of Gt activation upon illumination (intrinsic Gtα fluorescence after addition of 300 µM GTPγS), isorhodopsin regenerated with 40 µM 9-cis-retinal and 40 µM YC-001 together [1] | initial rate of Gt activation (intrinsic Gtα fluorescence after addition of 300 µM GTPγS), opsin membranes treated with 40 µM YC-001 [2] | initial rate of Gt activation (intrinsic Gtα fluorescence after addition of 300 µM GTPγS), opsin membranes treated with 40 µM YC-014 [2] | initial rate of Gt activation (intrinsic Gtα fluorescence after addition of 300 µM GTPγS), opsin membranes treated with DMSO [2] | β-Gal fragment complementation assay Activity score (%) Max (fit) / Efficacy (mouse P23H-opsin mutant; [3]) [%] | EC50 (mouse P23H-opsin mutant) [µM] | Immunostaining HCS MEM-Total ratio Max (fit) (mouse P23H opsin) | EC50 (mouse P23H opsin) [µM] | Improved glycosylation (P23H opsin) | β-Gal fragment complementation assay Activity score (%) Max (Exp) (mouse P23H-opsin mutant; 24 h, 5 µM 9-cis-retinal = 100%, experimental maximum) [%]
1 | Gt (from UniProt P04695 1-350) (complex) | -4.6 | -4.9 | -6.1 | -5.7 | -5.3 |  |  |  |  |  | 
2 | COCCNC(=O)c1sc2c(cnc3ccc(OC)cc32)c1-c1ccccc1 [Compound F3382-5924] |  |  |  |  |  | 155 | 28.6 | 0.046 | 2.42 | y | 
3 | Cc1cc(OCC(=O)Nc2cc(N3CCOCC3)ncn2)cc(C)c1Cl [Compound F6257-1860] |  |  |  |  |  | 234 | 10.7 | 0.022 | 1.07 | n | 211
